In PubChem BioAssay AID296 (DTP/NCI, 2004):
Where “and” joins values, the source holds several entries; their conditions need not be identical. Equal values may be shown once. Results filed as inconclusive are left out.

Tested on: MX-1 breast xenograft, nude mice, tumor weight T/C
Assay: NCI In Vivo Anticancer Drug Screen. Data for tumor model Human Mammary Carcinoma MX-1 Xenograft (intrarenal inoculation) in NU/NU Swiss (nude) mice
Conditions: endpoint: mean tumor weight change, higher = larger tumour
How it was run: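 Antitumour effect measured in vivo against vehicle controls, expressed as T/C.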

[1] = dose: 300.0 mg/kg/injection, schedule: Q04DX003 (sc), vehicle: saline with Tween-80
[2] = dose: 600.0 mg/kg/injection, schedule: Q04DX003 (sc), vehicle: saline with Tween-80
[3] = dose: 1200.0 mg/kg/injection, schedule: Q04DX003 (sc), vehicle: saline with Tween-80
[4] = dose: 1200.0 mg/kg/injection, schedule: Q04DX003 (sc), vehicle: saline
[5] = dose: 2400.0 mg/kg/injection, schedule: Q04DX003 (sc), vehicle: saline
[6] = dose: 2.0 mg/kg/injection, schedule: Q04DX003 (sc), vehicle: saline + alcohol
[7] = dose: 100.0 mg/kg/injection, schedule: Q01DX010 (sc), vehicle: saline
[8] = dose: 200.0 mg/kg/injection, schedule: Q01DX010 (sc), vehicle: saline
[9] = dose: 1200.0 mg/kg/injection, schedule: Q04DX003 (sc), vehicle: Klucel (hydroxypropylcellulose) (HPC)
[10] = dose: 150.0 mg/kg/injection, schedule: Q04DX003 (sc), vehicle: Klucel (hydroxypropylcellulose) (HPC)

COc1ccc2[nH]c3ccc4cc[n+](CCN5CCC(C6CCN(CC[n+]7ccc8ccc9[nH]c%10ccc(OC)cc%10c9c8c7)CC6)CC5)cc4c3c2c1
T/C (dose: 200.0 mg/kg/injection, schedule: Q04DX003 (sc), vehicle: Klucel (hydroxypropylcellulose) (HPC)): 108 % of control | T/C (dose: 400.0 mg/kg/injection, schedule: Q04DX003 (sc), vehicle: Klucel (hydroxypropylcellulose) (HPC)): 80 % of control | T/C (dose: 800.0 mg/kg/injection, schedule: Q04DX003 (sc), vehicle: Klucel (hydroxypropylcellulose) (HPC)): 99 % of control | T/C (dose: 1600.0 mg/kg/injection, schedule: Q04DX003 (sc), vehicle: Klucel (hydroxypropylcellulose) (HPC)): 80 % of control

CC1(c2ccc(Cl)cc2)OC(=O)C(=Cc2ccc([N+](=O)[O-])s2)C(=O)O1 (stereo not given)
T/C [1]: 122 % of control | T/C [2]: 44 % of control | T/C [3]: 26 % of control

O=C(C1CO1)C(Cl)(Cl)Cl (stereo not given)
T/C (dose: 150.0 mg/kg/injection, schedule: Q04DX003 (sc), vehicle: saline): 64 % of control

Cn1c(=O)[nH]c2nncnc2c1=O
T/C (dose: 125.0 mg/kg/injection, schedule: Q04DX003 (sc), vehicle: water): 92 % of control

Clc1ccc(C(c2ccccc2Cl)C(Cl)Cl)cc1 (stereo not given)
T/C [4]: 85 % of control | T/C [5]: 98 % of control | T/C (dose: 4800.0 mg/kg/injection, schedule: Q04DX003 (sc), vehicle: saline): 83 % of control | T/C (dose: 9600.0 mg/kg/injection, schedule: Q04DX003 (sc), vehicle: saline): 39 % of control

c1cn[nH]c1
T/C (dose: 75.0 mg/kg/injection, schedule: Q04DX003 (ip), vehicle: saline): 106 % of control | T/C (dose: 150.0 mg/kg/injection, schedule: Q04DX003 (ip), vehicle: saline): 96 % of control | T/C (dose: 300.0 mg/kg/injection, schedule: Q04DX003 (ip), vehicle: saline): 69 % of control | T/C (dose: 600.0 mg/kg/injection, schedule: Q04DX003 (ip), vehicle: saline): 71 % of control

COC1/C=C/C=C(/C)Cc2cc(O)c(Cl)c(c2)N(C)C(=O)CC(OC(=O)C(C)C)C2(C)OC2C(C)C2CC1(O)NC(=O)O2 (stereo not given)
T/C (dose: 1.0 mg/kg/injection, schedule: Q04DX003 (sc), vehicle: saline + alcohol): 95 % of control | T/C [6]: 78 % of control and 87 % of control (2×) | T/C (dose: 16.0 mg/kg/injection, schedule: Q04DX003 (sc), vehicle: saline + alcohol): 3 % of control and -8 % of control

C1CN2CN3CCN(CN1C3)C2
T/C [7]: 114 % of control | T/C [8]: 97 % of control

C1OC1CN1CCN(CC2CO2)CC1 (stereo not given)
T/C (dose: 8.0 mg/kg/injection, schedule: Q01DX010 (sc), vehicle: suspension in saline): 289 % of control | T/C (dose: 16.0 mg/kg/injection, schedule: Q01DX010 (sc), vehicle: saline): 8 % of control and 33 % of control | T/C (dose: 16.0 mg/kg/injection, schedule: Q01DX010 (sc), vehicle: suspension in saline): 98 % of control

CC(=O)OCC1OC(OC2=C(CC=C(C)C)C(=O)c3ccccc3C2=O)C(OC(C)=O)C(OC(C)=O)C1OC(C)=O (stereo not given)
T/C (dose: 400.0 mg/kg/injection, schedule: Q01DX010 (sc), vehicle: Klucel (hydroxypropylcellulose) (HPC)): 194 % of control | T/C (dose: 800.0 mg/kg/injection, schedule: Q01DX010 (sc), vehicle: Klucel (hydroxypropylcellulose) (HPC)): 52 % of control

CCC1(O)CC2CN(CCc3c([nH]c4ccccc34)C(C(=O)OC)(c3cc4c(cc3OC)N(C)C3C(O)(C(N)=O)C(O)C5(CC)C=CCN6CCC43C65)C2)C1 (stereo not given) (tested in a mixture with another compound)
T/C (dose: 0.75 mg/kg/injection, schedule: Q04DX003 (sc), vehicle: water): 27 % of control | T/C (dose: 1.5 mg/kg/injection, schedule: Q04DX003 (sc), vehicle: water): 1 % of control | T/C (dose: 6.0 mg/kg/injection, schedule: Q04DX003 (sc), vehicle: water): -44 % of control

CCCCCCCCSC1=C(Cl)C(=O)C(OC)=C(OC)C1=O
T/C (dose: 36.0 mg/kg/injection, schedule: Q04DX003 (sc), vehicle: saline with Tween-80): 113 % of control | T/C (dose: 72.0 mg/kg/injection, schedule: Q04DX003 (sc), vehicle: saline with Tween-80): 109 % of control | T/C (dose: 144.0 mg/kg/injection, schedule: Q04DX003 (sc), vehicle: saline with Tween-80): 90 % of control

CN1N=C(N)c2cn(C3OC(COP(=O)(O)O)C(O)C3O)c3ncnc1c23 (stereo not given)
T/C (dose: 25.0 mg/kg/injection, schedule: Q01DX010 (sc), vehicle: water): -92 % of control and -76 % of control | T/C (dose: 50.0 mg/kg/injection, schedule: Q01DX010 (sc), vehicle: water): -91 % of control and -75 % of control

COc1ccc(OC)c(Cc2cnc3nc(N)nc(N)c3c2C)c1
T/C (dose: 75.0 mg/kg/injection, schedule: Q04DX003 (sc), vehicle: water): 73 % of control | T/C (dose: 150.0 mg/kg/injection, schedule: Q04DX003 (sc), vehicle: water): 56 % of control | T/C (dose: 300.0 mg/kg/injection, schedule: Q04DX003 (sc), vehicle: water): 53 % of control | T/C (dose: 600.0 mg/kg/injection, schedule: Q04DX003 (sc), vehicle: water): 62 % of control

ClCc1ccc2ccccc2n1
T/C (dose: 150.0 mg/kg/injection, schedule: Q04DX003 (sc), vehicle: saline with Tween-80): 98 % of control | T/C [1]: 98 % of control | T/C [3]: 116 % of control

CO[C@H]1Nc2c(ccc(C)c2O)C(=O)N2C=C(/C=C/C(N)=O)C[C@@H]12
T/C (dose: 0.5 mg/kg/injection, schedule: Q04DX003 (sc), vehicle: saline + alcohol): 18 % of control and 40 % of control | T/C [6]: -100 % of control

Cc1ccc(C(=O)[O][Hg][CH2]C2COC([CH2][Hg][O]C(=O)c3ccc(C)cc3)CO2)cc1 (stereo not given)
T/C (dose: 300.0 mg/kg/injection, schedule: Q04DX003 (sc), vehicle: Klucel (hydroxypropylcellulose) (HPC)): 109 % of control | T/C (dose: 600.0 mg/kg/injection, schedule: Q04DX003 (sc), vehicle: Klucel (hydroxypropylcellulose) (HPC)): 106 % of control | T/C [9]: 72 % of control | T/C (dose: 2400.0 mg/kg/injection, schedule: Q04DX003 (sc), vehicle: Klucel (hydroxypropylcellulose) (HPC)): 102 % of control

COc1cc2cc(c1Cl)N(C)C(=O)CC(OC(=O)C(C)C)C1(C)OC1C(C)C1CC(O)(NC(=O)O1)C(OC)/C=C/C=C(C)C2 (stereo not given)
T/C (dose: 1.56 micrograms/kg/injection, schedule: Q01DX010 (sc), vehicle: saline + alcohol): 40 % of control | T/C (dose: 3.12 micrograms/kg/injection, schedule: Q01DX010 (sc), vehicle: saline + alcohol): 67 % of control | T/C (dose: 6.25 micrograms/kg/injection, schedule: Q01DX010 (sc), vehicle: saline + alcohol): 53 % of control | T/C (dose: 12.5 micrograms/kg/injection, schedule: Q01DX010 (sc), vehicle: saline + alcohol): 67 % of control

Cc1ccccc1N(CC1CO1)CC1CO1 (stereo not given)
T/C (dose: 50.0 mg/kg/injection, schedule: Q01DX010 (sc), vehicle: saline): 54 % of control | T/C [7]: 91 % of control | T/C [8]: 89 % of control | T/C (dose: 400.0 mg/kg/injection, schedule: Q01DX010 (sc), vehicle: saline): 56 % of control | T/C (dose: 800.0 mg/kg/injection, schedule: Q01DX010 (sc), vehicle: suspension in saline): 111 % of control

Cn1cc(C2NC(=O)c3ccccc3N2)c2ccccc21 (stereo not given)
T/C [10]: 113 % of control | T/C [9]: 108 % of control

O=C1NC(O)c2ccccc2O1 (stereo not given)
T/C (dose: 300.0 mg/kg/injection, schedule: Q04DX003 (sc), vehicle: suspension in saline): 25 % of control | T/C (dose: 600.0 mg/kg/injection, schedule: Q04DX003 (sc), vehicle: suspension in saline): 30 % of control | T/C (dose: 1200.0 mg/kg/injection, schedule: Q04DX003 (sc), vehicle: suspension in saline): 26 % of control | T/C (dose: 2400.0 mg/kg/injection, schedule: Q04DX003 (sc), vehicle: suspension in saline): 29 % of control

COc1cccc2c1C(=O)c1c(O)c3c(c(O)c1C2=O)C[C@@](O)(C(=O)COC(=O)c1cccnc1)C[C@@H]3OC1CC(N)C(O)C(C)O1 (stereo not given in full)
T/C (dose: 6.0 mg/kg/injection, schedule: Q04DX003 (sc), vehicle: saline): 52 % of control and 58 % of control | T/C (dose: 12.0 mg/kg/injection, schedule: Q04DX003 (sc), vehicle: saline): 15 % of control and 26 % of control | T/C (dose: 24.0 mg/kg/injection, schedule: Q04DX003 (sc), vehicle: saline): 20 % of control

NC(=S)N/N=C/c1ccc(OC(=O)COc2ccc(Cl)cc2)cn1
T/C [1]: 112 % of control | T/C [2]: 88 % of control | T/C [3]: 92 % of control

COc1ccc2[nH]c3c(c2c1)CCNC3CC(C)CCC=C(C)C (stereo not given)
T/C (dose: 75.0 mg/kg/injection, schedule: Q04DX003 (sc), vehicle: Klucel (hydroxypropylcellulose) (HPC)): 114 % of control | T/C [10]: 119 % of control

OCC12COCN1COC2
T/C (dose: 300.0 mg/kg/injection, schedule: Q04DX003 (sc), vehicle: saline): 80 % of control | T/C (dose: 600.0 mg/kg/injection, schedule: Q04DX003 (sc), vehicle: saline): 102 % of control | T/C [4]: 109 % of control | T/C [5]: 122 % of control
